Data from patent US20170014469A1, “METHODS OF RE[…] LATENT HUMAN IMMUNODEFICIENCY VIRUS” (priority 2013, published 2017).
Entries after “also recorded” stand apart in the source; their conditions may differ. Like-named read-outs stand apart in the source and are kept apart here.

How the values were obtained:
[1] = tested on: latently HIV-1 infected EF7 and CA5 T cells; settings: PMA stimulation; cited from earlier work
[2] = tested on: latent HIV-1 infection in CA5 T cells; type: cell-based; settings: for HIV-1 reactivation in combination with disulfiram: 24 hour pretreatment with bortezomib, disulfiram titrated, FIG. 3; for HIV-1 reactivation in combination with disulfiram / HIV-1 reactivation in combination with bryostatin: read 24 hours after addition; for HIV-1 reactivation in combination with bryostatin: 24 hour pretreatment with proteasome inhibitor, bryostatin titrated; for HIV-1 reactivation by the proteasome inhibitor by itself: CA5 T cells pretreated 24 hours
Procedure: (§1) Increased protein-ubiquitination for targeting to the proteasome by the E3 ubiquitin ligase GRAIL is a hallmark of T cell anergy. […] FIG. 2B is a graph showing bortezomib in combination with the activator bryostatin. FIG. 2C is a graph showing bortezomib in combination with the activator prostratin.
CA5 T cells were pretreated for 24 hours with bortezomib. Disulfiram was titrated on control cells or bortezomib pretreated T cells. Reactivation was measured 24 hours after disulfiram addition by determining the percentage of GFP-positive cells using flow cytometric analysis.
CA5 T cells were pretreated for 24 hours with carfilzomib. Bryostatin was titrated on control cells or carfilzomib pretreated T cells. Reactivation was measured 24 hours after bryostatin addition by determining the percentage of GFP-positive cells using flow cytometric analysis.
As mentioned above, T cell anergy has been reported to be associated with a series of changes in the kinase activity profile. A hallmark of T cell anergy is the expression of GRAIL (gene related to anergy in lymphocytes), a trans-membrane RING finger ubiquitin E3 ligase (Anandasabapathy et al., Immunity 18:535-547 (2003)). As other ubiquitin ligases, GRAIL tags proteins for degradation by the proteasome. […] In order to determine this, two FDA-approved proteasome inhibitors, bortezomib and carfilzomib, were tested for their ability to mobilize latent HIV-1 infection, either by themselves, or in combination with potentially therapeutically relevant known HIV-1 reactivating activators, such as bryostatin, prostratin, and disulfiram.

[3] = tested on: latent HIV-1 infection in J2574 reporter T cells; test: Establishment of latent HIV-1 infection in J2574 reporter T cells after ionomycin pretreatment; type: cell-based; settings: ionomycin pretreatment of J2574 T cells versus untreated control, independent of the level of virus input, FIG. 2A
From the text: as §1, with “FIGS. 2A, 2B, and 2C show targeting anergy-related mechanisms alters HIV-1 latency control. […] Increased” for “Increased”
Without being bound by any theory, a working concept derived from the altered cellular phenotype observed in latently HIV-1 infected T cells could be that HIV-1 latency is correlated with the induction of a pseudoanergic state of the host-cell. HIV-1 infection has been reported to be associated with high levels of induced T cell anergy. Exposure to gp120 has been reported to be sufficient to trigger T cell anergy (Bouhdoud et al., Journal of Virology 74:2121-2130 (2000); Dybul et al., J. Immunol. 165:1685-91 (2000); Masci et al., Journal of Leukocyte Biology 74:1117-1124 (2003); and Schols and De Clercq, Journal of Virology 70:4953-4960 (1996)). Also, other retroviruses are reported to induce epigenetic changes in their host cells. Ubiquitin and CDK2 are also known to be involved in T cell anergy (Greenwald et al., Immunity 14:145-155 (2001); and Li et al., Nature Immunology 7:1157-65 (2006)). […]

For `CCCCCCCCCCCCCC(=O)O[C@@H]1[C@@H](C)[C@@]2(O)[C@@H](C=C(CO)C[C@]3(O)C(=O)C(C)=C[C@@H]23)[C@@H]2C(C)(C)[C@]12OC(C)=O` [PMA, phorbol 12-myristate 13-acetate], the “reactivation at the population level” value [1] is given as greater than 90%.

For `CC(C)C[C@H](NC(=O)[C@H](Cc1ccccc1)NC(=O)c1cnccn1)B(O)O` [bortezomib], the “HIV-1 reactivation in combination with prostratin” value ([2]; 24 hour pretreatment with bortezomib (5 nM), prostratin titrated, CA5 T cells, FIG. 2C) was “interacted with prostratin”, the “HIV-1 reactivation in combination with disulfiram” value ([2]; CA5 T cells) was “synergistically trigger HIV-1 reactivation” and the “HIV-1 reactivation in combination with disulfiram” value ([2]; CA5 T cells, listed as Bortezomib) was “interacted”. For the same compound, the “activator concentrations required to trigger full HIV-1 reactivation at the population level” value ([2]; 24 hour pretreatment with proteasome inhibitor (bortezomib 5 nM), activators bryostatin or prostratin, CA5 T cells) was “reduces”, the “HIV-1 reactivation in combination with bryostatin” value ([2]; CA5 T cells) was “highly synergistic” and the “latently infected T cells in which latent HIV-1 infection was mobilized” value ([2]; bortezomib 5 nM by itself, CA5 T cells, FIG. 2B) was roughly 30%. For the same compound, the “HIV-1 reactivation by the proteasome inhibitor by itself” value [2] was “mobilizes latent HIV-1 infection”.

For `CC(C)C[C@H](NC(=O)[C@H](CCc1ccccc1)NC(=O)CN1CCOCC1)C(=O)N[C@@H](Cc1ccccc1)C(=O)N[C@@H](CC(C)C)C(=O)[C@@]1(C)CO1` [carfilzomib], the “HIV-1 reactivation in combination with bryostatin” value ([2]; CA5 T cells) was “trigger HIV-1 reactivation”, the “HIV-1 reactivation in combination with bryostatin” value ([2]; CA5 T cells, listed as Carfilzomib) was “potently interacted” and the “HIV-1 reactivation by the proteasome inhibitor by itself” value [2] was “triggered HIV-1 reactivation”.

With `C[C@H](CCC(=O)O)C[C@H](C)C[C@H](C)C(=O)/C=C(\O)[C@H](C)C[C@H](C)C/C=C/[C@@H](C)[C@@H](O)[C@@H](C)[C@@H](O)C[C@@H]1CC[C@@](C)([C@H]2CC[C@@](C)([C@@H](C)O)O2)O1` [ionomycin] the “amount of established stable latent infection events” value [3] was “promotes the establishment of latent HIV-1 infection; also recorded: almost doubled”.
